Test results reported in patent US9376436B2, “2-(pyridin-2yl)-1, 7-diaza-spiro [4.4] nonane-6-one compound as voltage-gated sodium channels modulators” (CONVERGENCE PHARMACEUTICALS LIMITED, priority 2011, dated 2016).
Counter-ions that a name gives are not always drawn. Like-named read-outs stand apart in the source and are kept apart here.

Target: T1, hNaV1.7 (Homo sapiens, UniProt Q15858)
T1 construct: expressed in transfected cells; host or cells: HEK293
Experiment: QPatch NaV1.7 assay (whole-cell patch clamp, QPatch16x)
Type: cell-based
Details: HEK293-hNaV1.7 cells
Procedure, shortened: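 HEK293 cells expressing hNaV1.7 recorded by automated whole-cell patch clamp (CsF internal, pH 7.3). Peak currents from 20 ms steps to 0 mV measured at holding potentials of −90 mV and V1/2 SSI; four-point cumulative concentrations, 120 s each, Hill fits gave pIC50 at each potential.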

T1 sequence (Q15858 whole entry): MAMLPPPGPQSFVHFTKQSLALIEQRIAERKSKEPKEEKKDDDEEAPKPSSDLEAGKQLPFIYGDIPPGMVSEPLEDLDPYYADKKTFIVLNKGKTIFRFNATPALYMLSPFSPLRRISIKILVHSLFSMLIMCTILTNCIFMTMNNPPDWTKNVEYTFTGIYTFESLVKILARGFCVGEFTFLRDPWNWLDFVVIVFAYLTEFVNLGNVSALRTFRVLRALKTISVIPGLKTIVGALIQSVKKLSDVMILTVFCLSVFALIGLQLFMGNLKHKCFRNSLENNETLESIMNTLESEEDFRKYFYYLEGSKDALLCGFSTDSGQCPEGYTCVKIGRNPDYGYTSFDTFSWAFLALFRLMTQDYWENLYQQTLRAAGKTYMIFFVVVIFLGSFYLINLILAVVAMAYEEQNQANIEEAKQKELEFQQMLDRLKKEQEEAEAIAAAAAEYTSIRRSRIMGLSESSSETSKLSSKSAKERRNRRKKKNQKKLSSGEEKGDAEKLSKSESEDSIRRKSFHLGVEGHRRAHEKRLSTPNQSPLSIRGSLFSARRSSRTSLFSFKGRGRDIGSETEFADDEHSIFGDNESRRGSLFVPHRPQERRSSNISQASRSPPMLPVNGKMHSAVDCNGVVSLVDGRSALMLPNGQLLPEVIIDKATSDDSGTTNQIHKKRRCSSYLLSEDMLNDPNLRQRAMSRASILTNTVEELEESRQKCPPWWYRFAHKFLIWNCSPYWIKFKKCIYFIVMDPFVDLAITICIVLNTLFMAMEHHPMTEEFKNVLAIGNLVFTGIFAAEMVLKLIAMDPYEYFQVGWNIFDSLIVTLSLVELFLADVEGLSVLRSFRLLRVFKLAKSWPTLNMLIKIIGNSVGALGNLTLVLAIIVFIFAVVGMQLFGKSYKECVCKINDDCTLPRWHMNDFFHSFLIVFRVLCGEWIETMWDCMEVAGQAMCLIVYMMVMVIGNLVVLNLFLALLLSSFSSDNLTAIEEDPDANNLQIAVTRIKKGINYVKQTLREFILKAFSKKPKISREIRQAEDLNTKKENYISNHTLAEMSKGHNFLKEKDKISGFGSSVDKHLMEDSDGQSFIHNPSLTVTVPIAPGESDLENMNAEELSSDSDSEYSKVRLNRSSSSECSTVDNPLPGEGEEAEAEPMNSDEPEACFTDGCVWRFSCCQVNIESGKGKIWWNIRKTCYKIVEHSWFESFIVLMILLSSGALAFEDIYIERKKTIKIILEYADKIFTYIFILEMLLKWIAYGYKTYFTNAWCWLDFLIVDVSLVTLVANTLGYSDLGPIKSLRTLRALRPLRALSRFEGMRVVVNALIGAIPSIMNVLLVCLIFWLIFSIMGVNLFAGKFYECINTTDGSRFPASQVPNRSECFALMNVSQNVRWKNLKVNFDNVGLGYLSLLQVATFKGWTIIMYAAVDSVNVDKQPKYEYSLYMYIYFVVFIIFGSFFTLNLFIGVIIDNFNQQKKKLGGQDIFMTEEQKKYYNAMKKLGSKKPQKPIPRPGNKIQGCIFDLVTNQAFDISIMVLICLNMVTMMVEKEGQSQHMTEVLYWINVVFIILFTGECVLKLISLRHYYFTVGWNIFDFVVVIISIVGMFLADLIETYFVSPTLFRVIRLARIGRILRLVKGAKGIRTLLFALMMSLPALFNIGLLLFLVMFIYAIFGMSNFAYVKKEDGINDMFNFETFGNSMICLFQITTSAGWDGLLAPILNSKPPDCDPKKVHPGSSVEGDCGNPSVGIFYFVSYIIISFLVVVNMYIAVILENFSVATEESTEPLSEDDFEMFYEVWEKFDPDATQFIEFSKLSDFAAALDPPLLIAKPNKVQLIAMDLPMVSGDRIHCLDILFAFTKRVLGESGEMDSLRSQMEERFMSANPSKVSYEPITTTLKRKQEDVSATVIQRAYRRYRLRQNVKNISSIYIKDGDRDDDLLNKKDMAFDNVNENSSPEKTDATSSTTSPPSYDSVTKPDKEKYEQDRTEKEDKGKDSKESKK

IC50 (holding voltage V1/2 SSI (half of channels inactivated), read-out: QP Nav1.7 SSI vhalf pIC50 (converted)): 1260 µM
IC50 (holding voltage −90 mV (most channels closed), read-out: QP Nav1.7 −90 mV pIC50 (converted)): 158 µM
Compound: CCn1cc2cc(F)c(-c3ccnc([C@H]4CC[C@@]5(CCN(C)C5=O)N4)c3)cc2n1 [Example 259, (2R,5S)-2-[4-(2-Ethyl-5-fluoro-indazol-6-yl)-2-pyridyl]-7-methyl-1,7-diazaspiro[4.4]nonan-6-one hydrochloride]
